From PMC10333884, “Large‐scale phosphomimetic screening identifies phospho‐modulated motif‐based protein interactions” (Molecular Systems Biology, 2023) come the findings set out here.

Residues, ends and D or L forms follow the SMILES beside them. *: point of attachment. FITC = O=C1OC2(c3ccc(O)cc3Oc3cc(O)ccc32)c2ccc(NC(=S)*)cc21

The target of one experiment is T1, RANBP2 RanBD1 4 (Homo sapiens, UniProt P49792).
T1 construct: GST (cleaved yes); made in house; host or cells: Escherichia coli BL21-Gold(DE3)
T1 sequence (P49792 2924-3050): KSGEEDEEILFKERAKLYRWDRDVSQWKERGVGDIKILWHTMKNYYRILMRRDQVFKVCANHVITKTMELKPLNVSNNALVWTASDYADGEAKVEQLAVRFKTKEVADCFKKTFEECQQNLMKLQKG
The experiment can be described thus: FP saturation experiment, RANBP2 RanBD1 4. The following applies: FP saturation (direct binding), 5 nM FITC-labelled peptide, 50 mM sodium phosphate pH 7.4, room temperature; at least technical triplicates; probe from this study; read-out: KD [µM] + SE. As for the experimental part: (§1) FP experiments were performed as described previously (Kliche et al, [2021]). Shortly, in order to monitor the binding event, FITC‐labelled peptides were used (excitation 495 nm, emission: 535 nm) and the FP signal was recorded in mP on a SpectraMax iD5 Multi‐Mode Microplate Reader (Molecular Devices) by measuring the emitted light in two angels. The measurements were performed at room temperature and prepared in nonbinding black half area 96‐well microplates (Corning®; 50 μl/well). For measuring direct binding, that is saturation curves, a 1:1 dilution series of protein domain (25 μl/well) was generated in 50 mM sodium phosphate buffer pH 7.4 and the measurement performed with 5 nM FITC‐labelled peptide (25 μl/well). The buffer‐corrected values were subsequently plotted with PRISM and fitted to the quadratic equation (Gianni et al, [2005]).

The target in the next experiment is T2, PDCD6IP Alix V domain (Homo sapiens, UniProt Q8WUM4).
T2 construct: GST (cleaved yes); made in house; host or cells: Escherichia coli BL21-Gold(DE3)
T2 sequence (Q8WUM4 360-702): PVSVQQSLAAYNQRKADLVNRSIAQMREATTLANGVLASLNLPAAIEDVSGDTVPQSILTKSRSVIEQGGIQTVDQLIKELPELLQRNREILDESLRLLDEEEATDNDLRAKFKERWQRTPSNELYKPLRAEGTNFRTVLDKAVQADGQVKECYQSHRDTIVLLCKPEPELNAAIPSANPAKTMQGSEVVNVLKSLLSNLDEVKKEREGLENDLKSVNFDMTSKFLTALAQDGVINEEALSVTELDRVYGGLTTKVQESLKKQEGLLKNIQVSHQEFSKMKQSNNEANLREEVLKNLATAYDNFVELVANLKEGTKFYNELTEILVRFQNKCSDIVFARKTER
The experiment can be described thus: FP saturation experiment, PDCD6IP Alix V domain. The following applies: FP saturation (direct binding), 5 nM FITC-labelled peptide, 50 mM sodium phosphate pH 7.4, room temperature; at least technical triplicates; reference for probe peptide RiboVD, Mihalič et al, to be published; read-out: KD [µM] + SE. As for the experimental part:
as §1

The term Kd denotes the equilibrium constant for the complex coming apart. Take `CC(C)C[C@H](NC(=O)[C@H](C)NC(=O)[C@H](CCC(=O)O)NC(=O)[C@H](CCCCN)NC(=S)Nc1ccc2c(c1)C(=O)OC21c2ccc(O)cc2Oc2cc(O)ccc21)C(=O)N[C@@H](C)C(=O)N[C@H](C(=O)N1CCC[C@H]1C(=O)N[C@@H](CC(C)C)C(=O)N1CCC[C@H]1C(=O)N[C@@H](CCCCN)C(N)=O)[C@@H](C)O` [FITC-C7orf25] ({FITC}-KEALATPLPK-NH2): at RANBP2 RanBD1 4, the Kd turned out to be 22 ± 1 µM.

Turning to `CC(C)C[C@H](NC(=O)[C@H](CO)NC(=O)[C@@H](NC(=O)[C@H](CC(C)C)NC(=O)[C@@H]1CCCN1C(=O)[C@@H]1CCCN1C(=O)[C@H](Cc1ccc(O)cc1)NC(=O)[C@H](CC(C)C)NC(=O)[C@H](CO)NC(=S)Nc1ccc2c(c1)C(=O)OC21c2ccc(O)cc2Oc2cc(O)ccc21)[C@@H](C)O)C(=O)N[C@@H](CCCNC(=N)N)C(=O)O` [FITC-HIV1_Gag] ({FITC}-SLYPPLTSLR-OH), the Kd at PDCD6IP Alix V domain worked out at 3.6 ± 0.3 µM.
